Laboratory results: PubChem BioAssay AID1794819
Non-standard residues stand in square brackets, D forms with d. Residues, ends and D or L forms follow the SMILES beside them. Sar = CNCC(=O)O

Molecular target: Solute carrier family 15 member 2 (Homo sapiens) (UniProt Q16348)
Experiment: SLC15A2 dipeptide substrate-evoked depolarization, dose response, membrane potential dye, HEK-293 overexpressing cells, pH 6.8/7.4 (AID 1794819)
Conditions: HEK-293 SLC15A2 OE, FLIPR membrane potential dye, as substrate

Chain of Solute carrier family 15 member 2 (Homo sapiens) (Q16348 whole entry, looked up): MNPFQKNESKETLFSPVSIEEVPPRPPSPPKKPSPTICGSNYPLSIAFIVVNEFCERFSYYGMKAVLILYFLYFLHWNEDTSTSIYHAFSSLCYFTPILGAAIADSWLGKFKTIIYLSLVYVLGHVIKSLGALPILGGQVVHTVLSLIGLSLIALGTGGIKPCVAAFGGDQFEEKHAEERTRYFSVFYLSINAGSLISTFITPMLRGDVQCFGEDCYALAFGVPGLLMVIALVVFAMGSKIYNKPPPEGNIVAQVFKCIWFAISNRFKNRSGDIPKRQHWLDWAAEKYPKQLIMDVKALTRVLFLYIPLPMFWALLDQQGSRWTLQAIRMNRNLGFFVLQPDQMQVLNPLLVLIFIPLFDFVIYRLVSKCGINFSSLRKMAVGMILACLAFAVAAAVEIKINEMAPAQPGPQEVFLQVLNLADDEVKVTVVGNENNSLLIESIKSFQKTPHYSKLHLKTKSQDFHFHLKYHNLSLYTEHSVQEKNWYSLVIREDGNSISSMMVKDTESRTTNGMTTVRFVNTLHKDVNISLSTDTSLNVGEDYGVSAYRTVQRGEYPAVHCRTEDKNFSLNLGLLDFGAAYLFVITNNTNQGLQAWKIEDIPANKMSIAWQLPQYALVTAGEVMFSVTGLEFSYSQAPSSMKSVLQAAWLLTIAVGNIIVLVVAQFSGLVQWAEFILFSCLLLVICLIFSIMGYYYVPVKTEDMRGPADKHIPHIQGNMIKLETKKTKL

EC50 (pH 6.8) [µM] | EC50 (pH 7.4) [µM] | Structure (SMILES)
28 |  | NCCC(=O)N[C@@H](Cc1cnc[nH]1)C(=O)O
39 | 123 | CN(CC(=O)O)C(=O)CN (H-Gly-[Sar]-OH)
